Data set [1] in a line: Kinetic aqueous solubility of compound at pH 7.4. It is filed as physicochemical. Conditions: buffer, read-out: Kinetic_solubility.
Data set [2] is described as follows: Unbound drug concentration in C57BL/6 mouse plasma at 10 mg/kg, po measured after 4 hrs by LC-MS/MS analysis. Conditions: in vivo. It is filed as ADME, organism-based.
The nature of data set [3]: Unbound drug concentration in C57BL/6 mouse brain at 10 mg/kg, po measured after 4 hrs by LC-MS/MS analysis. Conditions: in vivo. The data set is classed as ADME, organism-based.
A short description of data set [4]: Ratio of unbound drug concentration in brain to plasma C57BL/6 mouse at 10 mg/kg, po measured after 4 hrs by LC-MS/MS analysis. Conditions: brain and plasma, read-out: K(p,uu,brain). The data set is classed as ADME, organism-based.
Data set [5] in a line: C0 in Sprague-Dawley rat at 0.5 mg/kg, iv. It is filed as ADME, organism-based. To be noted: in vivo.
Data set [6] is described as follows: Oral bioavailability in Sprague-Dawley rat at 3 mg/kg. It is filed as ADME, organism-based. Conditions: in vivo.
A short description of data set [7]: AUC (0 to infinity) in Beagle dog at 10 mg/kg, po. It is filed as ADME, organism-based, Canis lupus familiaris. Conditions: in vivo.
The nature of data set [8]: Half life in Beagle dog at 10 mg/kg, po. The data set is classed as ADME, organism-based, Canis lupus familiaris. To be noted: in vivo.
The nature of data set [9]: Half life in Cynomolgus monkey at 1 mg/kg, iv. It is filed as ADME, organism-based, Macaca fascicularis. Conditions: in vivo.
A short description of data set [10]: Tmax in Cynomolgus monkey at 3 mg/kg, po. Conditions: in vivo. It is filed as ADME, organism-based, Macaca fascicularis.
Data set [11] has as its target T1, Potassium channel subfamily K member 13 (Mus musculus) (UniProt Q8R1P5).
T1 sequence (whole entry): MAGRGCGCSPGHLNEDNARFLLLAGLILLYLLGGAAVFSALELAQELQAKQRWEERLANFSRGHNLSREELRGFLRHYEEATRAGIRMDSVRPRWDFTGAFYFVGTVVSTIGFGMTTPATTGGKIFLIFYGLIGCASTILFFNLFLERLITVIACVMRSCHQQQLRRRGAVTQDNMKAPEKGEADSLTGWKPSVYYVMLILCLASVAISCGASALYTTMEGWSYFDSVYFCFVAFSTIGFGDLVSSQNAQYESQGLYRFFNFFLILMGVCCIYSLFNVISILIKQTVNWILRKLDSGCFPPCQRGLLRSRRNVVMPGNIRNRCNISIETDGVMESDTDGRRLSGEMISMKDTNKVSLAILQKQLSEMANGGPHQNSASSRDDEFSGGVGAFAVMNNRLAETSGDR
In words: Inhibition of mouse KCNK13 transfected in HEK293 cells assessed as reduction in thallium influx incubated for 15 mins in dark by FLIPR assay relative to control. It is filed as cell-based.

Data set [12] deals with NACHT, LRR and PYD domains-containing protein 3 (Mus musculus) (UniProt Q8R4B8). Briefly: Inhibition of NLRP3 inflammasome-mediated IL-1beta release in LPS/ATP-induced C57Bl6 mouse hippocampus at 1 uM pretreated for 1 hr followed by ATP addition measured after 3 hrs by ELISA. The data set is classed as tissue-based. To be noted: time 4.0 hrs. Background: In an ELISA, binding on a coated surface is turned into a signal by an enzyme label.

For data set [13], the target named is Voltage-gated inwardly rectifying potassium channel KCNH2 (Homo sapiens, UniProt Q12809). Briefly: Inhibition of hERG. It is filed as toxicity. On the technique in general: hERG is a cardiac potassium channel; its block is linked to QT prolongation.

In brackets after ≈: the same amount, converted by molar mass. Activity calls are given as the source filed them.

NACHT, LRR and PYD domains-containing protein 3 (Mus musculus), sequence (Q8R4B8 whole entry, the tested form may be a part): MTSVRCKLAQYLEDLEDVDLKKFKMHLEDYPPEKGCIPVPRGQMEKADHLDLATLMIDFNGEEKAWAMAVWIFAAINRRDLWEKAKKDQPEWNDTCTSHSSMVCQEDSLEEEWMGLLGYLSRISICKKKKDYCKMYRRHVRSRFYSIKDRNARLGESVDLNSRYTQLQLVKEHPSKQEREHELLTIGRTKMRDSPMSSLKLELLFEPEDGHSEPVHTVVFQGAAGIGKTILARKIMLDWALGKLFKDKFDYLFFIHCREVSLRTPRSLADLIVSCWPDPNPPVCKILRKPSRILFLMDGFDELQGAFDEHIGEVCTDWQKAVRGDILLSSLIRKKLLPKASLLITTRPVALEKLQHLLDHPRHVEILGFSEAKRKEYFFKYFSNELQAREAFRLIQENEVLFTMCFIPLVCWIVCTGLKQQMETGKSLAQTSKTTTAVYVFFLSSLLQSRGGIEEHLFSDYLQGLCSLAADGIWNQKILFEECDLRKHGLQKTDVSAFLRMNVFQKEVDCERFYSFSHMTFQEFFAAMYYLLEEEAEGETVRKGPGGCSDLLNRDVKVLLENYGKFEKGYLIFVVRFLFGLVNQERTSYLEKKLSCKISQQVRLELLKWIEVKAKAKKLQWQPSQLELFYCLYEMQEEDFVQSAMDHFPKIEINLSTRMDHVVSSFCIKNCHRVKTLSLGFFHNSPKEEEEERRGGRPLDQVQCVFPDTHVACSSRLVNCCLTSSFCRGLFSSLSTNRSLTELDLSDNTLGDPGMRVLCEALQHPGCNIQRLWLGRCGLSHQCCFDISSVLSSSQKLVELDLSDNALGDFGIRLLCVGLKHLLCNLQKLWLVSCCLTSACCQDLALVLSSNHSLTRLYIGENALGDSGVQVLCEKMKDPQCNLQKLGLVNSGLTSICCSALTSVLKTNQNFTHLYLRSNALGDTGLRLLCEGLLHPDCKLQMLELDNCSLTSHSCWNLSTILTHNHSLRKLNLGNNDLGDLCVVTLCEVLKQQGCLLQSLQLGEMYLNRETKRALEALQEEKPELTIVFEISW
Voltage-gated inwardly rectifying potassium channel KCNH2, sequence (Q12809 whole entry): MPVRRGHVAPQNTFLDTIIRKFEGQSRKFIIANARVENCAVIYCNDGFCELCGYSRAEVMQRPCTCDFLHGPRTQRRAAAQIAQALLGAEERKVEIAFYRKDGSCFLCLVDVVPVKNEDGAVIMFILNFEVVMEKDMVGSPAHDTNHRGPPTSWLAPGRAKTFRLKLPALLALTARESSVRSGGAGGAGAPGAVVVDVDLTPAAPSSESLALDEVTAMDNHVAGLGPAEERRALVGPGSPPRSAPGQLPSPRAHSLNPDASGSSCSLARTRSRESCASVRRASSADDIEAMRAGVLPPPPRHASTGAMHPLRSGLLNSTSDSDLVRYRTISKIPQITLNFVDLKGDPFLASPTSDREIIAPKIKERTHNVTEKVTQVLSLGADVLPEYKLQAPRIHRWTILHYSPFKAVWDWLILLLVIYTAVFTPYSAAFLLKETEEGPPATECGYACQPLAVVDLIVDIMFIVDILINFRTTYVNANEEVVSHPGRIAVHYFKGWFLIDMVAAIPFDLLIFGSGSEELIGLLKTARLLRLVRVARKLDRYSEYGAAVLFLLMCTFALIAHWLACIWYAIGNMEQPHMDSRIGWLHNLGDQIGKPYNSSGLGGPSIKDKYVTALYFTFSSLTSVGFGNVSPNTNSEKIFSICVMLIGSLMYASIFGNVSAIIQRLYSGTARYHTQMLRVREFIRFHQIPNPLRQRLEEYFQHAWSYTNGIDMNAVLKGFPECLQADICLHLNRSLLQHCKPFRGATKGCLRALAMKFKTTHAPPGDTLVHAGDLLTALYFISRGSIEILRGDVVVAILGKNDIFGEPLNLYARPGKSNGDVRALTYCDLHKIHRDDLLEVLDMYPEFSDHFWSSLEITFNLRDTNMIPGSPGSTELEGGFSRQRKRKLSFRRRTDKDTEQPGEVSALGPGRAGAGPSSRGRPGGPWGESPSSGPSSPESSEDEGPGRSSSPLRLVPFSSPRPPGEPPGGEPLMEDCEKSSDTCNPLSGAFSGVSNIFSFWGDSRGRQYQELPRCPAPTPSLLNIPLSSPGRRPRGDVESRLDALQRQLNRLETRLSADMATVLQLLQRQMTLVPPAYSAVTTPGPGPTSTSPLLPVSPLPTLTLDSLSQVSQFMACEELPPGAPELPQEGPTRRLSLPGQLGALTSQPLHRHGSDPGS

By bioavailability is commonly meant dose-corrected exposure relative to a reference, in per cent. Usually AUC stands for the area under the concentration-time curve, a measure of exposure. Broadly, the half-life is the time needed for the level to fall by half in the phase considered. By Tmax is commonly meant the time at which the peak concentration occurs. With `Nc1nonc1-c1nc2cccc(F)c2n1Cc1cccnn1`, the solubility kinetic in data set [1] is 94 µM (≈ 29.3 µg/mL). Moreover, the “Cp(f)” value in data set [2] amounted to 372 nM; in [3] it was 248 nM. For the same molecule, in [4], the Kp uu at 4 h was found to be 0.66. In [5], this molecule had a C0 of 304 ng/mL. The molecule further returned a bioavailability in [6] of 87%. The same molecule registered an AUC in [7] of 630 ng·h/mL. Further, the figures for the half-life in data set [8] and in [9] were 2.6 h and 1.1 h, respectively. Further, the Tmax in [10] is 1 h. The Imax in data set [11] stood at 97%. Moreover, the inhibition result in [12] was “Active”. The “inhibition (INH)” value in [13] was “Not Active”.

These data come from ChEMBL document CHEMBL5634193, “Discovery of CVN293, a Brain Permeable KCNK13 (THIK-1) Inhibitor Suitable for Clinical Assessment” (ACS Med Chem Lett, 2024).
